# Assay results taken from ChEMBL document CHEMBL4177526, “Discovery and structure activity relationship of the first potent cryptosporidium FIKK kinase inhibitor” (Bioorg Med Chem, 2017).
# How the values were obtained:
# [1] = target: Aurora kinase B (Homo sapiens) (UniProt Q96GD4); assay: Inhibition of human Aurora B (1 to 344 residues) assessed as residual activity at 500 nM in presence of 33P-ATP by filter binding assay relative to control
# [2] = target: Dual specificity protein kinase CLK2 (Homo sapiens) (UniProt P49760); assay: Inhibition of human CLK2 (138 to 499 residues) assessed as residual activity at 500 nM in presence of 33P-ATP by filter binding assay relative to control
# [3] = target: Mitogen-activated protein kinase 13 (Homo sapiens) (UniProt O15264); assay: Inhibition of human p38delta (1 to 365 residues) assessed as residual activity at 500 nM in presence of 33P-ATP by filter binding assay relative to control
# [4] = target: High affinity nerve growth factor receptor (Homo sapiens) (UniProt P04629); assay: Inhibition of human TRKA (441 to 760 residues) assessed as residual activity at 500 nM in presence of 33P-ATP by filter binding assay relative to control
# [5] = target: Maternal embryonic leucine zipper kinase (Homo sapiens) (UniProt Q14680); assay: Inhibition of human MELK (2 to 651 residues) assessed as residual activity at 500 nM in presence of 33P-ATP by filter binding assay relative to control
# [6] = target: Serine/threonine-protein kinase N2 (Homo sapiens) (UniProt Q16513); assay: Inhibition of human PRK2 (501 to 984 residues) assessed as residual activity at 500 nM in presence of 33P-ATP by filter binding assay relative to control
# [7] = target: Ephrin type-A receptor 4 (Homo sapiens) (UniProt P54764); assay: Inhibition of human EPHA4 (570 to 986 residues) assessed as residual activity at 500 nM in presence of 33P-ATP by filter binding assay relative to control
# [8] = target: Misshapen-like kinase 1 (Homo sapiens) (UniProt Q8N4C8); assay: Inhibition of human MINK1 (1 to 320 residues) assessed as residual activity at 500 nM in presence of 33P-ATP by filter binding assay relative to control
# [9] = target: Serine/threonine-protein kinase PAK 4 (Homo sapiens) (UniProt O96013); assay: Inhibition of human PAK4 (2 to 591 residues) assessed as residual activity at 500 nM in presence of 33P-ATP by filter binding assay relative to control
# [10] = target: Inhibitor of nuclear factor kappa-B kinase subunit epsilon (Homo sapiens) (UniProt Q14164); assay: Inhibition of human IKKepsilon (1 to 716 residues) assessed as residual activity at 500 nM in presence of 33P-ATP by filter binding assay relative to control
# [11] = target: Serine/threonine-protein kinase PLK1 (Homo sapiens) (UniProt P53350); assay: Inhibition of human PLK1 (1 to 603 residues) assessed as residual activity at 500 nM in presence of 33P-ATP by filter binding assay relative to control
# [12] = target: Receptor-interacting serine/threonine-protein kinase 2 (Homo sapiens) (UniProt O43353); assay: Inhibition of human RIPK2 (2 to 311 residues) at 500 nM in presence of 33P-ATP by filter binding assay relative to control
# [13] = target: Serine/threonine-protein kinase SIK2 (Homo sapiens) (UniProt Q9H0K1); assay: Inhibition of human SIK2 (2 to 926 residues) assessed as residual activity at 500 nM in presence of 33P-ATP by filter binding assay relative to control
# [14] = target: Interleukin-1 receptor-associated kinase 1 (Homo sapiens) (UniProt P51617); assay: Inhibition of human IRAK1 (1 to 712 residues) assessed as residual activity at 500 nM in presence of 33P-ATP by filter binding assay relative to control
# [15] = target: Tyrosine-protein kinase ZAP-70 (Homo sapiens) (UniProt P43403); assay: Inhibition of human ZAP70 (1 to 619 residues) assessed as residual activity at 500 nM in presence of 33P-ATP by filter binding assay relative to control
# [16] = target: Serine/threonine-protein kinase TBK1 (Homo sapiens) (UniProt Q9UHD2); assay: Inhibition of human TBK1 (1 to 729 residues) assessed as residual activity at 500 nM in presence of 33P-ATP by filter binding assay relative to control
# [17] = target: Dual specificity mitogen-activated protein kinase kinase 6 (Homo sapiens) (UniProt P52564); assay: Inhibition of human MKK6 (2 to 334 residues) assessed as residual activity at 500 nM in presence of 33P-ATP by filter binding assay relative to control
# [18] = target: Casein kinase II subunit alpha (Homo sapiens) (UniProt P68400); assay: Inhibition of human CK2alpha (2 to 391 residues) assessed as residual activity at 500 nM in presence of 33P-ATP by filter binding assay relative to control
# [19] = target: MAP/microtubule affinity-regulating kinase 4 (Homo sapiens) (UniProt Q96L34); assay: Inhibition of human MARK4 (1 to 367 residues) assessed as residual activity at 500 nM in presence of 33P-ATP by filter binding assay relative to control
# [20] = target: Serine/threonine-protein kinase MARK1 (Homo sapiens) (UniProt Q9P0L2); assay: Inhibition of human MARK1 (2 to 795 residues) assessed as residual activity at 500 nM in presence of 33P-ATP by filter binding assay relative to control
# [21] = target: Platelet-derived growth factor receptor alpha (Homo sapiens) (UniProt P16234); assay: Inhibition of human PDGFRalpha (551 to […] residues) assessed as residual activity at 500 nM in presence of 33P-ATP by filter binding assay relative to control
# [22] = target: Mitogen-activated protein kinase 9 (Homo sapiens) (UniProt P45984); assay: Inhibition of human JNK2 (1 to 424 residues) assessed as residual activity at 500 nM in presence of 33P-ATP by filter binding assay relative to control
# [23] = target: MAP kinase-interacting serine/threonine-protein kinase 2 (Homo sapiens) (UniProt Q9HBH9); assay: Inhibition of human MNK2alpha (2 to 465 residues) assessed as residual activity at 500 nM in presence of 33P-ATP by filter binding assay relative to control
# [24] = target: Serine/threonine-protein kinase BRSK1 (Homo sapiens) (UniProt Q8TDC3); assay: Inhibition of human BRSK1 (2 to 778 residues) assessed as residual activity at 500 nM in presence of 33P-ATP by filter binding assay relative to control
# [25] = target: Serine/threonine-protein kinase 33 (Homo sapiens) (UniProt Q9BYT3); assay: Inhibition of human STK33 (1 to 514 residues) assessed as residual activity at 500 nM in presence of 33P-ATP by filter binding assay relative to control
# [26] = system: TGF-beta receptor type-1 (Homo sapiens), P36897 [T204D]; assay: Inhibition of human TGFbetaR1 T204D mutant (200 to 501 residues) assessed as residual activity at 500 nM in presence of 33P-ATP by filter binding assay relative to control
# Chain of TGF-beta receptor type-1 (Homo sapiens), P36897 [T204D] (P36897 whole entry T204D, the tested form may be a part): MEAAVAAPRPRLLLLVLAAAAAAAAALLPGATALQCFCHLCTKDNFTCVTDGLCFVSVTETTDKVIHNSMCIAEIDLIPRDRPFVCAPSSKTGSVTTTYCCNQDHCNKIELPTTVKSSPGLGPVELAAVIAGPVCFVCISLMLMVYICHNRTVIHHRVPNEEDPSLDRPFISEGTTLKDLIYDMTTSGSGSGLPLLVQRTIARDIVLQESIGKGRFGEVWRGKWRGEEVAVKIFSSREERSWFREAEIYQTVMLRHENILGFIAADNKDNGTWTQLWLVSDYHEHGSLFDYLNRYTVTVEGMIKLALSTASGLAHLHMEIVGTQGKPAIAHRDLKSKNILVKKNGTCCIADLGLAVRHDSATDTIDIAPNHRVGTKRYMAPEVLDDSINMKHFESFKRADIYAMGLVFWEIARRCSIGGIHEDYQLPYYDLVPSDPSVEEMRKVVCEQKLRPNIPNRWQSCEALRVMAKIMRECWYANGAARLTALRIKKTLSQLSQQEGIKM
# Chain of Tyrosine-protein kinase ZAP-70 (Homo sapiens) (P43403 whole entry, the tested form may be a part): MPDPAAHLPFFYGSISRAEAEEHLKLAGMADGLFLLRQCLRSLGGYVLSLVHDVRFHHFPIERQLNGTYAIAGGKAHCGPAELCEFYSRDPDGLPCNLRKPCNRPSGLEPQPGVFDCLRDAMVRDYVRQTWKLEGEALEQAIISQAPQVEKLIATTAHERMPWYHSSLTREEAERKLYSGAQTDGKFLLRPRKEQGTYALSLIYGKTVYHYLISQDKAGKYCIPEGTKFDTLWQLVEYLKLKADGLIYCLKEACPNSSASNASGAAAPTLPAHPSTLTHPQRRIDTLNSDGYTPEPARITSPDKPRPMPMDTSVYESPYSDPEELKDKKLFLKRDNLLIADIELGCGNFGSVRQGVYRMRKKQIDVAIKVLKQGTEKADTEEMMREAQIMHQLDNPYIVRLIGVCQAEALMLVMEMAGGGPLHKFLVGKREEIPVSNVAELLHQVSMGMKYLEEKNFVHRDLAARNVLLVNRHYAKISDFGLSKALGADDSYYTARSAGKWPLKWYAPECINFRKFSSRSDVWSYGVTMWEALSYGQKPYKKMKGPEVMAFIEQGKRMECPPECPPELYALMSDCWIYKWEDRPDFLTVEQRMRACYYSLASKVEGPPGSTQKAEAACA
# Chain of Dual specificity protein kinase CLK2 (Homo sapiens) (P49760 whole entry, looked up, the tested form may be a part): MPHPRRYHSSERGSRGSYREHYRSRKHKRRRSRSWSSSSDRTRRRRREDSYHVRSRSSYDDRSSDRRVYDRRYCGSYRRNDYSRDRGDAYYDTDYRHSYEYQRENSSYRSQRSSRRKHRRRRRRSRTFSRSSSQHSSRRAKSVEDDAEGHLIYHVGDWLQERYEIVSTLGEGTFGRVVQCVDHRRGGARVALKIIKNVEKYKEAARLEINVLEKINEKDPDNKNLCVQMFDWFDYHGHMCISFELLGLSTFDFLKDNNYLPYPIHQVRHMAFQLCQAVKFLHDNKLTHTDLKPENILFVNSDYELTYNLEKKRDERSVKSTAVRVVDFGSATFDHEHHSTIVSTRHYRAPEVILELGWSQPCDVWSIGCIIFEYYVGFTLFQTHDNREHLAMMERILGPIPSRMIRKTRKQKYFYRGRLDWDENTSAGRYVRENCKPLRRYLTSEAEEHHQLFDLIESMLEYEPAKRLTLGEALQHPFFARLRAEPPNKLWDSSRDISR
# Chain of Serine/threonine-protein kinase N2 (Homo sapiens) (Q16513 whole entry, looked up, the tested form may be a part): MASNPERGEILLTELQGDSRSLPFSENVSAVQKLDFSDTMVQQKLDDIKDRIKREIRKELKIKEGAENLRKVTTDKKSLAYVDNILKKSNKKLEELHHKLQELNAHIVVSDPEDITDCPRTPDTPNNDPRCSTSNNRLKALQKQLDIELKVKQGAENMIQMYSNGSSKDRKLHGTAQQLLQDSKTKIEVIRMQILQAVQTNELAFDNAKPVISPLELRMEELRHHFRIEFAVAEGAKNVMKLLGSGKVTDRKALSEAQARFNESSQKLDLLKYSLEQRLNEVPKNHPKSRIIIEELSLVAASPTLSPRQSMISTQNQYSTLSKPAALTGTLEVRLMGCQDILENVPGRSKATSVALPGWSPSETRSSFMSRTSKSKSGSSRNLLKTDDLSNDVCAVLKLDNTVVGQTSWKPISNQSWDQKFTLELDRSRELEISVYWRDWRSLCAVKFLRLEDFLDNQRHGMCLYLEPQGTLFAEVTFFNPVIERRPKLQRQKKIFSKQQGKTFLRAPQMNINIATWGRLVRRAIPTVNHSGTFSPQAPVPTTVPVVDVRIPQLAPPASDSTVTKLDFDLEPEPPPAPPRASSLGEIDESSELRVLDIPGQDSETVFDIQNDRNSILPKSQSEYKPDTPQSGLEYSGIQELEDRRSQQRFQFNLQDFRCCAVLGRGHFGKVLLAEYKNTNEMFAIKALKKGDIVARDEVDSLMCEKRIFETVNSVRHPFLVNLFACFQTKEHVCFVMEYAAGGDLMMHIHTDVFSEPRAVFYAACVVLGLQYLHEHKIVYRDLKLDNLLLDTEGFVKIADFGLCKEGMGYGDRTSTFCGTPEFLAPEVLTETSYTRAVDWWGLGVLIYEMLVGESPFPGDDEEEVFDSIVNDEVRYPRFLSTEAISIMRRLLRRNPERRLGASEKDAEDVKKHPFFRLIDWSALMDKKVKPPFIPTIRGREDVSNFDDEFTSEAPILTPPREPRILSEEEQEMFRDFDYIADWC
# Chain of Maternal embryonic leucine zipper kinase (Homo sapiens) (Q14680 whole entry, looked up, the tested form may be a part): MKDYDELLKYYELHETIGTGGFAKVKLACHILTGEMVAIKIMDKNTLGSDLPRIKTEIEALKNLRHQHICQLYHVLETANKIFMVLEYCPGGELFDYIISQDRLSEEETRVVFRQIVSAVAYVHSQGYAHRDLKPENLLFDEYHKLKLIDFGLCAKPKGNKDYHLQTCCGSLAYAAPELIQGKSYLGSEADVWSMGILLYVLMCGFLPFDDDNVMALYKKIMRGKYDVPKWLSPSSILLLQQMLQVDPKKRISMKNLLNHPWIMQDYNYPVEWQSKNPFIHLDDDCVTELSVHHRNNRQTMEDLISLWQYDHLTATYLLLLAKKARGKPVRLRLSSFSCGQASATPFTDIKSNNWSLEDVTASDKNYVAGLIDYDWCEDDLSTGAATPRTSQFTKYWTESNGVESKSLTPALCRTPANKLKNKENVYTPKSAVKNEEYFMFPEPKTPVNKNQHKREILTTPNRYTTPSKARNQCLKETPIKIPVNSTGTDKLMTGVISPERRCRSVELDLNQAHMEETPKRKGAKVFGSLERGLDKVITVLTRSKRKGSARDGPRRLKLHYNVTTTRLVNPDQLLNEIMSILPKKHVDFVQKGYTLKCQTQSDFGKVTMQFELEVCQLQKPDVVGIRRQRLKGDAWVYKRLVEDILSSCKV
# Chain of Inhibitor of nuclear factor kappa-B kinase subunit epsilon (Homo sapiens) (Q14164 whole entry, the tested form may be a part): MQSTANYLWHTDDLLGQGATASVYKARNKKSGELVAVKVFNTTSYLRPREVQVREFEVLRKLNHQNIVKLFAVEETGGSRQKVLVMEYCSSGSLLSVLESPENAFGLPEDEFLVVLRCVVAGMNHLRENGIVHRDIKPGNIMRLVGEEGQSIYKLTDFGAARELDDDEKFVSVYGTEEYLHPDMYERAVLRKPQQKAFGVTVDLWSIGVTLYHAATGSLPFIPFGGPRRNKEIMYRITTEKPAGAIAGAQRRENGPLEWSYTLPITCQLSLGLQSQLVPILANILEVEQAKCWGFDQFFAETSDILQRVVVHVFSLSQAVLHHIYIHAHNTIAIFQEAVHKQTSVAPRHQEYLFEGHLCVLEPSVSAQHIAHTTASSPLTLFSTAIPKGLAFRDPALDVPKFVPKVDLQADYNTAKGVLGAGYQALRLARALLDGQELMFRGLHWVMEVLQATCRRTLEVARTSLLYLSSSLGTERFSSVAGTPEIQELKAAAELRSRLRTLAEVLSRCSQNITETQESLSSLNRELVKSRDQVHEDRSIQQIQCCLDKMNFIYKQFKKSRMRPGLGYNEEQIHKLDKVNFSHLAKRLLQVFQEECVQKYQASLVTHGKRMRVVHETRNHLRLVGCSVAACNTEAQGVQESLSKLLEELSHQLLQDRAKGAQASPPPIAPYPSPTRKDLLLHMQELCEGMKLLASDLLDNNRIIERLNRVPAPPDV
# Chain of Ephrin type-A receptor 4 (Homo sapiens) (P54764 whole entry, the tested form may be a part): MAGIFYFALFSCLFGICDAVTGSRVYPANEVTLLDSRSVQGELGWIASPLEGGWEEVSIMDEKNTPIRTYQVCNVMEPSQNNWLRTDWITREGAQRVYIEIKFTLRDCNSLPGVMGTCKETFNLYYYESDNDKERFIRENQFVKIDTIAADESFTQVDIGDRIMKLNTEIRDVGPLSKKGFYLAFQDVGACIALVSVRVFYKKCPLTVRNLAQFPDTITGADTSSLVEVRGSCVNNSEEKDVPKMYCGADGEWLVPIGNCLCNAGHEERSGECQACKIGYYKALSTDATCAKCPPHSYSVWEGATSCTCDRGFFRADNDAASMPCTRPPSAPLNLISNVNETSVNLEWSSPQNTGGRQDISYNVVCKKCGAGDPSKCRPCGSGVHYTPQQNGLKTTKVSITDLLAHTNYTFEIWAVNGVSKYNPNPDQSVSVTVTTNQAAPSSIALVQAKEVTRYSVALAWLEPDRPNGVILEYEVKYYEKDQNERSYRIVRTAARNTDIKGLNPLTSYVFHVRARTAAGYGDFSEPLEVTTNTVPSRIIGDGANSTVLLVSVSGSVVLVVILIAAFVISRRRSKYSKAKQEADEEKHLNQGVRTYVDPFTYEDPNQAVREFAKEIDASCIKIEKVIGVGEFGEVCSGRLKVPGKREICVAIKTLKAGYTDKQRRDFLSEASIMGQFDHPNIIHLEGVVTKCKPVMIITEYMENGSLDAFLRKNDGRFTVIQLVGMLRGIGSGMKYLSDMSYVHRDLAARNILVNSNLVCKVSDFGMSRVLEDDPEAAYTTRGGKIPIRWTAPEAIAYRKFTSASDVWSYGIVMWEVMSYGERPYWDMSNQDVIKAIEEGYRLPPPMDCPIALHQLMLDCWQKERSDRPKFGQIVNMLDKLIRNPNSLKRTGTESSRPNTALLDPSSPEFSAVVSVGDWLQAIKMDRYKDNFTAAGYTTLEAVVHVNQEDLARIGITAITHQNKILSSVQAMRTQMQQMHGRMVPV
smiles,measurement,setting,value
Cc1cccc(-c2nc(N)sc2-c2ccc3ncccc3n2)c1,Activity,[1],89%
same,Activity,[2],76%
same,Activity,[3],113%
same,Activity,[4],97%
same,Activity,[5],91%
same,Activity,[6],121%
same,Activity,[7],104%
same,Activity,[8],74%
same,Activity,[9],106%
same,Activity,[10],101%
same,Activity,[11],107%
same,inhibition,[12],70%
same,Activity,[13],105%
same,Activity,[14],109%
same,Activity,[15],97%
same,Activity,[16],77%
same,Activity,[17],96%
same,Activity,[18],119%
same,Activity,[19],116%
same,Activity,[20],91%
same,Activity,[21],99%
same,Activity,[22],79%
same,Activity,[23],98%
same,Activity,[24],111%
same,Activity,[25],97%
same,Activity,[26],14%
